Test results: a compilation of properties of binary mixtures (doi:10.1007/s10973-015-5205-9)

Test: xn = mol fraction of the nth substance listed
Conditions: 100 kPa

CC[n+]1ccn(C)c1.F[B-](F)(F)F + CCOCCO
x2 = 0
Conditions | speed of sound [m/s]
298.15 K | 1620.3
318.15 K | 1573.8
328.15 K | 1550.9

CCOCCO + CC[n+]1ccn(C)c1.F[B-](F)(F)F
speed of sound [m/s]
Conditions | 298.15 K | 308.15 K | 318.15 K | 328.15 K
x1 = 0.0466 | 1614.9 | 1591.3 | 1568 | 1545.2
x1 = 0.0981 | 1607.6 | 1583.8 | 1560.2 | 1537.4
x1 = 0.1487 | – | 1575 | 1551.2 | 1528.2
x1 = 0.1973 | 1589.7 | 1565.3 | – | 1517.9
x1 = 0.3049 | 1564.7 | 1539.7 | – | 1490.7
x1 = 0.4112 | 1535 | 1509.2 | 1483.5 | 1458.2
x1 = 0.4953 | 1508.4 | – | 1455.3 | 1428.8
x1 = 0.5705 | 1482.4 | 1455 | 1427.6 | –
x1 = 0.696 | 1435 | 1406 | 1376.9 | 1347.7
x1 = 0.7952 | 1394.4 | 1363.9 | – | 1302.7
x1 = 0.8411 | 1374.8 | 1343.6 | 1311.9 | –
x1 = 0.8698 | 1362.4 | – | 1298.3 | 1267.2
x1 = 0.9487 | 1327.3 | 1294 | 1259.9 | 1228.2
x1 = 1 | 1304 | 1269.5 | 1234.1 | 1202.2
